For experiment [1], the system named is A549 (lung) cells. As to the kind of experiment: SRB growth inhibition assay, 96 hr exposure, A549. It counts as cell-based, human. The note with it: Homo sapiens, A549, 96 h exposure. The essentials:
(§1)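 SRB growth inhibition was measured after 96 h exposure to 2-fold serial dilutions of compound, with cells maintained at 37 °C in 5% CO2 and medium containing 10% FBS. Absorbance at 540 nm was expressed as a percentage of untreated control wells. IC50 was derived from these values.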

The subject of experiment [2] is Panc1 (pancreatic) cells. As to the kind of experiment: SRB growth inhibition assay, 96 hr exposure, Panc1. The note with it: Homo sapiens, PANC-1, 96 h exposure. It counts as cell-based, human. In outline:
as §1

Experiment [3] has as its system 83 human genes involved in telomere replication and maintenance in Mia-PaCa2 cells. Put plainly: qPCR array, telomere replication and maintenance genes. Format: cell-based. As to the method: Following compound exposure, cells were washed twice in PBS, harvested by trypsinisation, collected by centrifugation (300 g, 5 min, 4° C.) and re-suspended in RLT buffer (Qiagen). Samples were homogenised using QIAshredder spin columns and stored at −80° C. prior to RNA extraction. Three biological replicates were performed on separate days.
The expression of (i) 83 key human genes involved in telomere replication and maintenance, and (ii) 83 human genes involved in DNA damage signaling responses, was assessed using PCR arrays (SABiosciences). Total RNA was extracted from approximately 1×10^7 Mia-PaCa2 cells treated for 24 h with compound 3d, using the RNeasy kit (Qiagen) with on-column DNaseI treatment to remove residual genomic DNA. The quality of the harvested RNA was confirmed by nanodrop spectroscopy and by analysis with a Human RT^2 RNA QC PCR Array. First-strand cDNA synthesis was performed with the RT^2 first strand kit and qPCR was carried out using the RT^2 qPCR master mix (Qiagen) using 0.5 μg total RNA per array plate in a Stratagene MX-3000P instrument (Agilent, USA). Relative gene expression was determined by the ΔΔCT method using the web-based RT^2 Profiler™ PCR Array Data Analysis software (SABiosciences). Data were normalized to the geometric mean of five housekeeping genes (RPLP10, β-actin, B2M, GAPDH and HPRT1).
Dose-response curves were used to guide the choice of compound concentration and time-points for the array experiments (FIG. 2a). […] To explore this response continuum the transcriptional signature of cells exposed for 24 h to 20 nM, 40 nM, 80 nM concentrations of 3d, or solvent alone as control, was analysed as described in Materials and Methods.
However, changes in transcript abundance were modest, with only seven of these genes (MYC, NHP2, PPARG, PRKCB, PTEGES3, RASSF1 and SLX4) showing greater than two-fold abundance changes (FIGS. 2d and 2e).
(In qPCR the cycle at which signal appears reflects the starting amount.)

Experiment [4] deals with Mia-PaCa2 cells. Put plainly: Senescence β-galactosidase staining. It counts as cell-based, human. The note with it: 7 days treatment. Here is the method: FIG. 4. Micrographs showing the results of staining for evidence of cellular senescence in MiaPaCa2 cells using the β-galactosidase assay. Senescent cells are coloured blue in this procedure. Staining was performed after seven days treatments with (a) vehicle control, ×100 magnification, (b) 3.3 nM of compound 3d, ×200 magnification, (c) 6.6 nM of compound 3d, ×200 magnification, (d) 50 nM of compound 4, ×200 magnification, (e) plot of the percentage of senescent cells at the indicated concentrations of compounds 3d and 4, compared to the background senescence in this cell line (with vehicle control only). Cell counts were performed in triplicate and error bars represent estimated standard deviations.
Senescence detection and quantification experiments were carried out using the Senescence β-galactosidase staining kit (Cell Signalling Technology, MA, USA) according to the manufacturer's protocol. Briefly, 1×10^5 cells were seeded in 6-well plates in 2 ml of medium supplemented with the test compound and incubated for 24 h. Cells were washed (2 ml PBS), fixed (2% formaldehyde and 2% glutaraldehyde in PBS, 15 min, room temperature) and washed (2×2 ml PBS) before staining overnight. Senescent cells, detected by their blue pigmentation, were counted using a light microscope.
CDKN1A encodes the cyclin-dependent kinase p21WAF1 that induces replicative senescence, which is a well-studied consequence of telomerase inhibition and telomere maintenance disruption. […] Compounds 3b and 3d behaved in a similar manner to each other, with concentrations of 3-4 nM being sufficient to result in ˜50-60% of cells becoming senescent after this time-course.

The subject of experiment [5] is Mia-Paca2 human pancreatic tumour xenografts. As to the kind of experiment: MiaPaca-2 tumour xenograft. It counts as in vivo, CD1 nu/nu female mice. Here is the method: CD1 nu/nu female mice (7-8 weeks old) were housed in microisolator cages, fed with commercial mouse food (Food Harlam 2018, Madison, USA) and allowed to acclimatise for seven days before any procedure. Exponentially growing MiaPaca-2 cells (5×10^6 cell/100 uL unsupplemented RPMI) were inoculated subcutaneously into the right flank (100 uL per mice). Measurements of tumour growth were carried out at least twice a week with digital callipers until tumour masses reached an average size of 0.1 cm^3. Tumour volume was calculated by using the standard formula for determining the volume of an ellipsoid ([length×width×depth×π]/6)).
In a first experiment, mice were allocated into groups (six mice per group) as follows: control group (IV 100 uL/10g sterile PBS) and single dose of 20 mg/kg of 3d (IV 100 uL/10 g body weight in sterile PBS).
In a subsequent experiment using CD1 nu/nu female mice as described above, mice were allocated into groups (six mice per group) as follows: control group (IV 100 uL/10 g sterile PBS) and 3d at 15 mg/kg given once weekly. […] In the control group the median time to endpoint was 42 days compared to 79 days in the treated group.

SMILES strings stand for the structures.

A word on the IC50: it is the midpoint of a concentration-inhibition curve. The low end stands for higher potency, the high end for lower potency.

For `CN1CCN(CCCNc2cc3c4c(c(NCCCN5CCN(C)CC5)cc5c4c2C(=O)N(CCCN2CCOCC2)C5=O)C(=O)N(CCCN2CCOCC2)C3=O)CC1` [Compound 3d, 4,9-bis((3-(4-methylpiperazin-1-yl)propyl)amino)-2,7-bis(3-morpholinopropyl)benzo[lmn][3,8]phenanthroline-1,3,6,8(2H,7H)-tetraone], the half-inhibitory concentration (IC50) in experiment [1] and in experiment [2] was 10 to 20 nM in each case. In addition, the “number of telomere maintenance genes with greater than two-fold abundance changes” value in experiment [3] (20, 40 or 80 nM, 24 h) is given as “seven”. Moreover, in experiment [3] (borderline of statistical significance), the “expression of the gene encoding POT1” value is on record as “down-regulation”. Moreover, in experiment [3] (of 83 genes, 20, 40 or 80 nM, 24 h), the “number of telomere maintenance genes up or down-regulated to a statistically significant level (P<0.05)” value is 30 genes. Also, in experiment [4], the “induction of senescence (in words)” value is on record as “strong induction of senescence”. In experiment [4], the “potency as inducer of cellular senescence relative to compound 4” value is about 10 fold. Besides, the antitumour response result in experiment [5] (15 mg/kg once weekly) is “sustained antitumour response”. Besides, the “median time to endpoint” value in experiment [5] (15 mg/kg once weekly, control group 42 days) was determined as 79 days. Also, the “mice with a complete response, tumour free at 136 days” value in experiment [5] (15 mg/kg once weekly, of six mice) is given as “two”. The “tumour growth compared to untreated controls” value in experiment [5] (single dose 20 mg/kg IV) is listed as “significant growth delay”.

The record behind these values is patent US9493460B2, “Diimide compounds” (UCL BUSINESS PLC, priority 2013, dated 2016).
